The text below walks through data of publication PMC6273912, “Novel 5-Substituted 2-(Aylmethylthio)-4-chloro-N-(5-aryl-1,2,4-triazin-3-yl)benzenesulfonamides: Synthesis, Molecular Structure, Anticancer Activity, Apoptosis-Inducing Activity and Metabolic Stability” (Molecules, 2016).

For orientation: IC50 means the concentration that gives 50% inhibition. A high value points to a need for much substance. As a reminder, the viability is the share of living cells, or the viability signal relative to a control.

Common to all, as to format: cell-based, human
The test system of one assay is HeLa (cervical cancer). As to the kind of experiment: MTT cell viability assay, HeLa. The following applies: Homo sapiens, 72 h; for IC50: 72 h of incubation, mean ± SD. How it is done: (§1) All chemicals, if not stated otherwise, were obtained from Sigma-Aldrich (St. Louis, MO, USA). The MCF-7 cell line was purchased from Cell Lines Services (Eppelheim, Germany), the HeLa and HCT-116 cell lines were obtained from the Department of Microbiology, Tumor and Cell Biology, Karolinska Institute (Stockholm, Sweden). Cells were cultured in Dulbecco’s modified Eagle’s medium (DMEM) supplemented with 10% fetal bovine serum, 2 mM glutamine, 100 units/mL penicillin, and 100 μg/mL streptomycin. Cultures were maintained in a humidified atmosphere with 5% CO2 at 37 °C in an incubator (HeraCell, Heraeus, Langenselbold, Germany).
(§2) Cell viability was determined using the MTT (3-(4,5-dimethylthiazol-2-yl)-2,5-diphenyl-tetrazoliumbromide) assay. Stock solutions of the studied compounds were prepared in 100% DMSO. […] Cells were seeded in 96-well plates at a density of 5 × 10^3 cells/well and treated for 72 h with the examined compounds in the concentration range 1–100 μM (1, 10, 25, 50 and 100 μM). Following treatment, MTT (0.5 mg/mL) was added to the medium and cells were further incubated for 2 h at 37 °C. Cells were lysed with DMSO and the absorbance of the formazan solution was measured at 550 nm with a plate reader (1420 multilabel counter, Victor, Jügesheim, Germany). […] The experiment was performed in triplicate. Values are expressed as the mean ± SD of at least three independent experiments.

The next assay deals with HCT-116 (colon cancer). Put plainly: MTT cell viability assay, HCT-116. The following applies: Homo sapiens, HCT-116, 72 h, 72 h of incubation, mean ± SD. How it is done:
as §1, §2
For orientation: Formazan colour is commonly taken as a measure of viable cells.

The next assay relates to MCF-7 (breast cancer). As to the kind of experiment: MTT cell viability assay, MCF-7. Conditions: mean ± SD. How it is done:
as §1, §2

Setting [1] is: Homo sapiens, MCF7, 72 h of incubation.

As for `COc1ccc(-c2cnnc(NS(=O)(=O)c3cc(C)c(Cl)cc3SCc3ccccc3)n2)cc1` [Compound 29, 2-Benzylthio-4-chloro-N-[5-(4-methoxyphenyl)-1,2,4-triazin-3-yl]-5-methylbenzenesulfonamide], the half-maximal inhibitory concentration (IC50) in the assay with HeLa (cervical cancer) is 190 ± 7 µM; in the assay on HCT-116 (colon cancer), 720 ± 36 µM; in the assay on MCF-7 (breast cancer) (setting [1]), 110 ± 2 µM.

For the compound `COc1cccc(-c2cnnc(NS(=O)(=O)c3cc(C(=O)Nc4ccc(C)cc4)c(Cl)cc3SCc3ccccc3)n2)c1` [Compound 54, 4-Benzylthio-2-chloro-5-{N-[5-(3-methoxyphenyl)-1,2,4-triazin-3-yl]sulfamoyl}-N-(4-methylphenyl)benzamide], the 50% inhibitory concentration (IC50) worked out at 82 ± 1 µM in the assay on HeLa (cervical cancer), 84 ± 5 µM in the assay with HCT-116 (colon cancer) and 96 ± 5 µM with MCF-7 (breast cancer) (setting [1]).

As to `COc1ccc(-c2cnnc(NS(=O)(=O)c3cc(C)c(Cl)cc3SCc3c(C)noc3C)n2)cc1` [Compound 41, 4-Chloro-2-[(3,5-dimethylizoxazol-4-yl)methylthio]-N-[5-(4-methoxyphenyl)-1,2,4-triazin-3-yl]-5-methyl-benzenesulfonamide], the IC50 in the assay on HeLa (cervical cancer) was 85 ± 1 µM; in the assay with HCT-116 (colon cancer), 97 ± 2 µM; in the assay on MCF-7 (breast cancer) (setting [1]), 99 ± 1 µM.

As to `COc1ccc(NC(=O)c2cc(S(=O)(=O)Nc3nncc(-c4cccc(OC)c4)n3)c(SCc3ccccc3)cc2Cl)cc1` [Compound 58, 4-Benzylthio-2-chloro-N-(4-methoxyphenyl)-5-{N-[5-(3-methoxyphenyl)-1,2,4-triazin-3-yl]sulfamoyl}benzamide], the IC50 with HeLa (cervical cancer) stood at 88 ± 6 µM; with HCT-116 (colon cancer) it was 98 ± 2 µM; in the assay with MCF-7 (breast cancer) (setting [1]), 92 ± 6 µM.

As to `COc1cc(-c2cnnc(NS(=O)(=O)c3cc(C(=O)Nc4ccc(Cl)cc4)c(Cl)cc3SCc3ccccc3)n2)cc(OC)c1OC` [Compound 50, 4-Benzylthio-2-chloro-N-(4-chlorophenyl)-5-{N-[5-(3,4,5-trimethoxyphenyl)-1,2,4-triazin-3-yl]sulfamoyl}-benzamide], the IC50 in the assay on HeLa (cervical cancer) came to 130 ± 8 µM; with HCT-116 (colon cancer), 115 ± 3 µM; in the assay on MCF-7 (breast cancer) (setting [1]), 120 ± 4 µM.

As for `Cc1ccc(NC(=O)c2cc(S(=O)(=O)Nc3nncc(-c4cccc(F)c4)n3)c(SCc3ccccc3)cc2Cl)cc1` [Compound 51, 4-Benzylthio-2-chloro-5-{N-[5-(3-fluorophenyl)-1,2,4-triazin-3-yl]sulfamoyl}-N-(4-methylphenyl)benzamide], in the assay on HeLa (cervical cancer) (HeLa, 100 μM, read-out: Viability of cell line at 100 μM (HeLa)), the viability at 100 µM was determined as 100%. Moreover, the IC50 in the assay on HCT-116 (colon cancer) worked out at 190 ± 13 µM; in the assay on MCF-7 (breast cancer) (setting [1]), 95 ± 5 µM.

In the case of `O=C(Nc1ccc(Cl)cc1)c1cc(S(=O)(=O)Nc2nncc(-c3cccc(F)c3)n2)c(SCc2ccccc2)cc1Cl` [Compound 45, 4-Benzylthio-2-chloro-N-(4-chlorophenyl)-5-{N-[5-(3-fluorophenyl)-1,2,4-triazin-3-yl]sulfamoyl}benzamide], the half-maximal inhibitory concentration (IC50) with HeLa (cervical cancer) is 82 ± 1 µM; in the assay on HCT-116 (colon cancer) it was 97 ± 2 µM; in the assay on MCF-7 (breast cancer) (setting [1]) it was 90 ± 1 µM.

In the case of `COc1cc(-c2cnnc(NS(=O)(=O)c3cc(C(=O)Nc4ccc(C)cc4)c(Cl)cc3SCc3ccccc3)n2)cc(OC)c1OC` [Compound 56, 4-Benzylthio-2-chloro-N-(4-methylphenyl)-5-{N-[5-(3,4,5-trimethoxyphenyl)-1,2,4-triazin-3-yl]sulfamoyl}-benzamide], the IC50 in the assay on HeLa (cervical cancer) was found to be 80 ± 2 µM; with HCT-116 (colon cancer), 75 ± 2 µM; in the assay with MCF-7 (breast cancer) (setting [1]), 89 ± 3 µM.

`Cc1cc(S(=O)(=O)Nc2nncc(-c3cccc(F)c3)n2)c(SCc2ccc(C(F)(F)F)cc2)cc1Cl` [Compound 33, 4-Chloro-N-[5-(3-fluorophenyl)-1,2,4-triazin-3-yl]-5-methyl-2-[4-(trifluoromethyl)benzylthio]benzenesulfonamide]: the IC50 in the assay with HeLa (cervical cancer) is 76 ± 3 µM; in the assay on HCT-116 (colon cancer), 67 ± 1 µM; in the assay with MCF-7 (breast cancer) (setting [1]), 88 ± 1 µM.

Consider `COc1ccc(-c2cnnc(NS(=O)(=O)c3cc(C(=O)Nc4ccc(C)cc4)c(Cl)cc3SCc3ccccc3)n2)cc1OC` [Compound 55, 4-Benzylthio-2-chloro-5-{N-[5-(3,4-dimethoxyphenyl)-1,2,4-triazin-3-yl]sulfamoyl}-N-(4-methylphenyl)-benzamide], for which the half-inhibitory concentration (IC50) in the assay on HeLa (cervical cancer) came out at 105 ± 4 µM; in the assay on HCT-116 (colon cancer) it was 150 ± 3 µM; in the assay on MCF-7 (breast cancer) (setting [1]), 150 ± 6 µM.

For the compound `COc1cccc(-c2cnnc(NS(=O)(=O)c3cc(C(=O)Nc4ccccc4)c(Cl)cc3SCc3ccccc3)n2)c1` [Compound 43, 4-Benzylthio-2-chloro-5-{N-[5-(3-methoxyphenyl)-1,2,4-triazin-3-yl]sulfamoyl}-N-phenylbenzamide], the results for the IC50 in the assay on HeLa (cervical cancer), with HCT-116 (colon cancer) and in the assay on MCF-7 (breast cancer) (setting [1]) were 130 ± 10 µM, 92 ± 3 µM and 87 ± 2 µM, respectively.

In the case of `COc1ccc(-c2cnnc(NS(=O)(=O)c3cc(C(=O)Nc4ccc(Cl)cc4)c(Cl)cc3SCc3ccccc3)n2)cc1OC` [Compound 49, 4-Benzylthio-2-chloro-N-(4-chlorophenyl)-5-{N-[5-(3,4-dimethoxyphenyl)-1,2,4-triazin-3-yl]sulfamoyl}-benzamide], the 50% inhibitory concentration (IC50) with HeLa (cervical cancer) was found to be 120 ± 6 µM; in the assay with HCT-116 (colon cancer), 110 ± 2 µM; with MCF-7 (breast cancer) (setting [1]), 81 ± 5 µM.

Consider `COc1ccc(-c2cnnc(NS(=O)(=O)c3cc(C(=O)Nc4ccc(C)cc4)c(Cl)cc3SCc3ccccc3)n2)cc1` [Compound 53, 4-Benzylthio-2-chloro-5-{N-[5-(4-methoxyphenyl)-1,2,4-triazin-3-yl]sulfamoyl}-N-(4-methylphenyl)-benzamide], for which the IC50 with HeLa (cervical cancer) stood at 74 ± 2 µM; with HCT-116 (colon cancer), 76 ± 2 µM; in the assay on MCF-7 (breast cancer) (setting [1]) it was 88 ± 2 µM.

As for `COc1ccc(-c2cnnc(NS(=O)(=O)c3cc(C(=O)Nc4ccccc4)c(Cl)cc3SCc3ccccc3)n2)cc1` [Compound 42, 4-Benzylthio-2-chloro-5-{N-[5-(4-methoxyphenyl)-1,2,4-triazin-3-yl]sulfamoyl}-N-phenylbenzamide], the results for the IC50 in the assay on HeLa (cervical cancer), in the assay with HCT-116 (colon cancer) and in the assay on MCF-7 (breast cancer) (setting [1]) were 82 ± 1 µM, 77 ± 2 µM and 83 ± 2 µM, respectively.

As for `COc1cc(-c2cnnc(NS(=O)(=O)c3cc(C)c(Cl)cc3SCc3ccccc3)n2)cc(OC)c1OC` [Compound 32, 2-Benzylthio-4-chloro-5-methyl-N-[5-(3,4,5-trimethoxyphenyl)-1,2,4-triazin-3-yl]benzenesulfonamide], the IC50 in the assay on HeLa (cervical cancer) was found to be 87 ± 4 µM; in the assay on HCT-116 (colon cancer), 88 ± 3 µM; in the assay on MCF-7 (breast cancer) (setting [1]) it was 87 ± 4 µM.

With `COc1ccc(NC(=O)c2cc(S(=O)(=O)Nc3nncc(-c4cc(OC)c(OC)c(OC)c4)n3)c(SCc3ccccc3)cc2Cl)cc1` [Compound 60, 4-Benzylthio-2-chloro-N-(4-methoxyphenyl)-5-{N-[5-(3,4,5-trimethoxyphenyl)-1,2,4-triazin-3-yl]sulfamoyl}-benzamide], the figures for the IC50 with HeLa (cervical cancer), in the assay on HCT-116 (colon cancer) and with MCF-7 (breast cancer) (setting [1]) were 230 ± 5 µM, 230 ± 18 µM and 270 ± 13 µM, respectively.

As for `N.N.[Cl][Pt][Cl]` [Cisplatin, reference compound], the half-maximal inhibitory concentration (IC50) in the assay with MCF-7 (breast cancer) (72 h of incubation) came to 3 ± 0.1 µM.

With `COc1cccc(-c2cnnc(NS(=O)(=O)c3cc(C(=O)Nc4ccc(Cl)cc4)c(Cl)cc3SCc3ccccc3)n2)c1` [Compound 48, 4-Benzylthio-2-chloro-N-(4-chlorophenyl)-5-{N-[5-(3-methoxyphenyl)-1,2,4-triazin-3-yl]sulfamoyl}-benzamide], the half-maximal inhibitory concentration (IC50) in the assay with HeLa (cervical cancer) worked out at 80 ± 2 µM; in the assay on HCT-116 (colon cancer) it was 80 ± 3 µM; in the assay on MCF-7 (breast cancer) (setting [1]) it was 87 ± 3 µM.

For the compound `COc1ccc(NC(=O)c2cc(S(=O)(=O)Nc3nncc(-c4ccc(OC)c(OC)c4)n3)c(SCc3ccccc3)cc2Cl)cc1` [Compound 59, 4-Benzylthio-2-chloro-5-{N-[5-(3,4-dimethoxyphenyl)-1,2,4-triazin-3-yl]sulfamoyl}-N-(4-methoxyphenyl)-benzamide], the values for the IC50 in the assay on HeLa (cervical cancer), with HCT-116 (colon cancer) and in the assay with MCF-7 (breast cancer) (setting [1]) were 150 ± 2 µM, 140 ± 5 µM and 100 ± 5 µM, respectively.

As for `Cc1cc(S(=O)(=O)Nc2nncc(-c3cccc(F)c3)n2)c(SCc2ccccc2)cc1Cl` [Compound 27, 2-Benzylthio-4-chloro-N-[5-(3-fluorophenyl)-1,2,4-triazin-3-yl]-5-methylbenzenesulfonamide], the IC50 was 84 ± 1 µM with HeLa (cervical cancer), 75 ± 1 µM with HCT-116 (colon cancer) and 80 ± 2 µM with MCF-7 (breast cancer) (setting [1]).

Take `COc1ccc(-c2cnnc(NS(=O)(=O)c3cc(C(=O)Nc4ccccc4)c(Cl)cc3SCc3ccccc3)n2)cc1OC` [Compound 44, 4-Benzylthio-2-chloro-5-{N-[5-(3,4-dimethoxyphenyl)-1,2,4-triazin-3-yl]sulfamoyl}-N-phenylbenzamide]: the IC50 in the assay with HeLa (cervical cancer) worked out at 160 ± 8 µM; in the assay on HCT-116 (colon cancer), 160 ± 6 µM; in the assay with MCF-7 (breast cancer) (setting [1]), 90 ± 5 µM.

In the case of `COc1ccc(NC(=O)c2cc(S(=O)(=O)Nc3nncc(-c4ccc(OC)cc4)n3)c(SCc3ccccc3)cc2Cl)cc1` [Compound 57, 4-Benzylthio-2-chloro-N-(4-methoxyphenyl)-5-{N-[5-(4-methoxyphenyl)-1,2,4-triazin-3-yl]sulfamoyl}benzamide], the values for the IC50 in the assay with HeLa (cervical cancer), in the assay with HCT-116 (colon cancer) and in the assay on MCF-7 (breast cancer) (setting [1]) were 80 ± 1 µM, 73 ± 1 µM and 90 ± 1 µM, respectively.
